According to ChEMBL document CHEMBL1926681, “Novel inhibitors of epidermal growth factor receptor: (4-(Arylamino)-7H-pyrrolo[2,3-d]pyrimidin-6-yl)(1H-indol-2-yl)methanones and (1H-indol-2-yl)(4-(phenylamino)thieno[2,3-d]pyrimidin-6-yl)methanones” (Bioorg Med Chem, 2012):
Active and inactive are the calls of the source. The rule behind the calls is not given here.

Key:
[1] = Cytotoxicity against human LIXF 575L cells after 4 days by propidium iodide staining-based fluorometric analysis; assay type: functional, cell-based; settings: 96 h
[2] = Cytotoxicity against human RXF 1781L cells after 4 days by propidium iodide staining-based fluorometric analysis; assay type: functional, cell-based; settings: 96 h
[3] = Cytotoxicity against human MAXF 401NL cells after 4 days by propidium iodide staining-based fluorometric analysis; assay type: functional, cell-based; settings: 96 h
[4] = Cytotoxicity against human BXF 1218L cells after 4 days by propidium iodide staining-based fluorometric analysis; assay type: functional, cell-based; settings: 96 h
[5] = Cytotoxicity against human PC3M cells after 4 days by propidium iodide staining-based fluorometric analysis; assay type: functional, cell-based; settings: PC-3M, 96 h
[6] = Cytotoxicity against human BXF 1352L cells after 4 days by propidium iodide staining-based fluorometric analysis; assay type: functional, cell-based; settings: 96 h
[7] = tested on: MKN-45; assay: Cytotoxicity against human MKN45 cells after 4 days by propidium iodide staining-based fluorometric analysis; assay type: functional, cell-based; settings: MKN-45, 96 h
[8] = Cytotoxicity against human RXF 393NL cells after 4 days by propidium iodide staining-based fluorometric analysis; assay type: functional, cell-based; settings: 96 h
[9] = tested on: TE-671; assay: Cytotoxicity against human TE671 cells after 4 days by propidium iodide staining-based fluorometric analysis; assay type: functional, cell-based; settings: TE-671, 96 h
[10] = Cytotoxicity against human LXFA 289L cells after 4 days by propidium iodide staining-based fluorometric analysis; assay type: functional, cell-based; settings: 96 h
[11] = Cytotoxicity against human PAXF 546L cells after 4 days by propidium iodide staining-based fluorometric analysis; assay type: functional, cell-based; settings: 96 h
[12] = tested on: CAL-27; assay: Cytotoxicity against human CAL27 cells after 4 days by propidium iodide staining-based fluorometric analysis; assay type: functional, cell-based; settings: CAL-27, 96 h
[13] = tested on: OVCAR-3; assay: Cytotoxicity against human OVCAR3 cells after 4 days by propidium iodide staining-based fluorometric analysis; assay type: functional, cell-based; settings: OVCAR-3, 96 h
[14] = target: T1, Epidermal growth factor receptor (Homo sapiens, UniProt P00533); assay: Inhibition of EGFR using poly(Glu,Tyr)4:1 as substrate and [gamma33P]ATP after 60 mins by scintillation counting
T1 sequence (P00533 whole entry): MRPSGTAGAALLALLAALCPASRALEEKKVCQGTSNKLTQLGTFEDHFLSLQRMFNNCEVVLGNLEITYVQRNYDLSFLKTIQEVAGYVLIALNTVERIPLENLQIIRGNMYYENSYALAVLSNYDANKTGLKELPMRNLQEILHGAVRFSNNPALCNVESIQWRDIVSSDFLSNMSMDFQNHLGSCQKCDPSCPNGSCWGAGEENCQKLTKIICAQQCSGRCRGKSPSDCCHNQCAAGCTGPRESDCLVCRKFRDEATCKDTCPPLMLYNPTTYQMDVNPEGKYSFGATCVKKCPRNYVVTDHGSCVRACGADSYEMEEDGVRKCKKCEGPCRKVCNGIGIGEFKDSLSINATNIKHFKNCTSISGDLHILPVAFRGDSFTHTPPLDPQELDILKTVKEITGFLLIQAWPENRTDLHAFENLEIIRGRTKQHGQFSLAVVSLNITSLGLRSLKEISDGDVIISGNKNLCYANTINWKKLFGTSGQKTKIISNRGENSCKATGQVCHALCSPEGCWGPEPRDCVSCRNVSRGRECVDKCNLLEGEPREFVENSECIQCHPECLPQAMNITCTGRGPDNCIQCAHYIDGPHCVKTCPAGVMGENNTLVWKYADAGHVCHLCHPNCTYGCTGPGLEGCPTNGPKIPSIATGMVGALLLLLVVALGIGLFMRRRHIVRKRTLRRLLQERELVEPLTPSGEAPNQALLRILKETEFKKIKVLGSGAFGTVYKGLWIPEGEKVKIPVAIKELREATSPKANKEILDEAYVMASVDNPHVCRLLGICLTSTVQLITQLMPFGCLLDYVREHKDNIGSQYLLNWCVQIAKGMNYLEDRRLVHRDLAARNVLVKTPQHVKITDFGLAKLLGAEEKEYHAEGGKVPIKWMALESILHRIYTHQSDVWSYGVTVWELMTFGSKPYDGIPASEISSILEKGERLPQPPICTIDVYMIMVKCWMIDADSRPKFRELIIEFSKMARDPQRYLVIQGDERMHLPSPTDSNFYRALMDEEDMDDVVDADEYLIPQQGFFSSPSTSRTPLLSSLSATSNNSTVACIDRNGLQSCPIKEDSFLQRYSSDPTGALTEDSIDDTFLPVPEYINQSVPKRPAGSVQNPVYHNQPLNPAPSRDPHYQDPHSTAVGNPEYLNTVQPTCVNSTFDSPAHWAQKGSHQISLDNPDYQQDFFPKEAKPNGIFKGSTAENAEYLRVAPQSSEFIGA

[15] = Cytotoxicity against human UXF 1138L cells after 4 days by propidium iodide staining-based fluorometric analysis; assay type: functional, cell-based; settings: 96 h
[16] = target: Hepatocyte growth factor receptor (Homo sapiens) (UniProt P08581); assay: Inhibition of MET using poly(Ala, Glu, Lys, Tyr) as substrate and [gamma33P]ATP at 1 uM after 60 mins by scintillation counting
Sequence of Hepatocyte growth factor receptor (Homo sapiens) (P08581 whole entry): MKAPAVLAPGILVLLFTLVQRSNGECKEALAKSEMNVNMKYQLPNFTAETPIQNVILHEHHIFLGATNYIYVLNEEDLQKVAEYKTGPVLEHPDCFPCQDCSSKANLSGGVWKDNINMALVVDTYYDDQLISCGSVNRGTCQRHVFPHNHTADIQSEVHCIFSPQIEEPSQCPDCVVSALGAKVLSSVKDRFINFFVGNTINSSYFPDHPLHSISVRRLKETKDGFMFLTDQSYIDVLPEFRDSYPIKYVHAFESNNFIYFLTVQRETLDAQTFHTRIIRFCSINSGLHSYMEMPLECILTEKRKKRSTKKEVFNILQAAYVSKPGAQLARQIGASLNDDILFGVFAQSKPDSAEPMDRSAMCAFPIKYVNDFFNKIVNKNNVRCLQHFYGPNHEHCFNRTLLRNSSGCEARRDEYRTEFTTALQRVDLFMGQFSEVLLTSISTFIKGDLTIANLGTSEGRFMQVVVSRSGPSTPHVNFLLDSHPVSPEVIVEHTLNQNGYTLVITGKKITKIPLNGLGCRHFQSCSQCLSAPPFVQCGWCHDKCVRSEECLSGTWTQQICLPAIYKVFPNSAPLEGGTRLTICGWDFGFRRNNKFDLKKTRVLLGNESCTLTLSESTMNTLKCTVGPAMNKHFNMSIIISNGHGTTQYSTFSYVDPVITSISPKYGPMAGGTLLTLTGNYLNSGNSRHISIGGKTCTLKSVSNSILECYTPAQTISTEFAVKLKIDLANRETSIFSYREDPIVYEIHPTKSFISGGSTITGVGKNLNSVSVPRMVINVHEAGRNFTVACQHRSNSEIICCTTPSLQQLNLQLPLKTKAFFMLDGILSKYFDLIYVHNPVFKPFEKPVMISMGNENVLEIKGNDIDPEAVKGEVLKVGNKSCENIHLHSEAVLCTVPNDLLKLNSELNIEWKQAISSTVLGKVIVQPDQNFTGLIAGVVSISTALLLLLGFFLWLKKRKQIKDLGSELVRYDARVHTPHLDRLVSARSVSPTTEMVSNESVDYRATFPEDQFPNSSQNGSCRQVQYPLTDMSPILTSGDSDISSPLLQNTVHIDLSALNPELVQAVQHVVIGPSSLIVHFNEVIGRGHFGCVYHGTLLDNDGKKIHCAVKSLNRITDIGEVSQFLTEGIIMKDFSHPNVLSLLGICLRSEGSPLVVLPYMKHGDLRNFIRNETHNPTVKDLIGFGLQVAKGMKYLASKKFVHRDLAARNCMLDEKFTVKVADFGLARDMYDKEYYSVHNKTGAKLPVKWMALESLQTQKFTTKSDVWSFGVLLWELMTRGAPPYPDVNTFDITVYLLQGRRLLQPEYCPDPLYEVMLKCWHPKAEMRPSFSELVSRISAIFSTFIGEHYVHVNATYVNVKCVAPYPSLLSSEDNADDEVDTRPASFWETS

[17] = tested on: DU-145; assay: Cytotoxicity against human DU145 cells after 4 days by propidium iodide staining-based fluorometric analysis; assay type: functional, cell-based; settings: DU-145, 96 h
[18] = Cytotoxicity against human LXFL 1121L cells after 4 days by propidium iodide staining-based fluorometric analysis; assay type: functional, cell-based; settings: 96 h
[19] = Cytotoxicity against human MEXF 462NL cells after 4 days by propidium iodide staining-based fluorometric analysis; assay type: functional, cell-based; settings: 96 h
[20] = Cytotoxicity against human LXFA 629L cells after 4 days by propidium iodide staining-based fluorometric analysis; assay type: functional, cell-based; settings: 96 h
[21] = Cytotoxicity against human MEXF 276L cells after 4 days by propidium iodide staining-based fluorometric analysis; assay type: functional, cell-based; settings: MEXF276L, 96 h
[22] = Cytotoxicity against human BXF T24 cells after 4 days by propidium iodide staining-based fluorometric analysis; assay type: functional, cell-based; settings: T-24, 96 h
[23] = Cytotoxicity against human OVXF 899L cells after 4 days by propidium iodide staining-based fluorometric analysis; assay type: functional, cell-based; settings: 96 h
[24] = Cytotoxicity against human GXF251L cells after 4 days by propidium iodide staining-based fluorometric analysis; assay type: functional, cell-based; settings: GXF 251L, 96 h
[25] = tested on: NCI-H460; assay: Cytotoxicity against human H460 cells after 4 days by propidium iodide staining-based fluorometric analysis; assay type: functional, cell-based; settings: NCI-H460, 96 h
[26] = Cytotoxicity against human PXF 1118L cells after 4 days by propidium iodide staining-based fluorometric analysis; assay type: functional, cell-based; settings: 96 h
[27] = Cytotoxicity against human PXF 698L cells after 4 days by propidium iodide staining-based fluorometric analysis; assay type: functional, cell-based; settings: 96 h
[28] = Cytotoxicity against human PAXF 1657L cells after 4 days by propidium iodide staining-based fluorometric analysis; assay type: functional, cell-based; settings: 96 h
[29] = Cytotoxicity against human MDA231 cells after 4 days by propidium iodide staining-based fluorometric analysis; assay type: functional, cell-based; settings: MDA-MB-231, 96 h
[30] = tested on: RKO; assay: Cytotoxicity against human RKO cells after 4 days by propidium iodide staining-based fluorometric analysis; assay type: functional, cell-based; settings: 96 h
[31] = target: Tyrosine-protein kinase ABL1 (Homo sapiens) (UniProt P00519); assay: Inhibition of ABL1 using poly(Ala, Glu, Lys, Tyr) as substrate and [gamma33P]ATP at 1 uM after 60 mins by scintillation counting
Sequence of Tyrosine-protein kinase ABL1 (Homo sapiens) (P00519 whole entry): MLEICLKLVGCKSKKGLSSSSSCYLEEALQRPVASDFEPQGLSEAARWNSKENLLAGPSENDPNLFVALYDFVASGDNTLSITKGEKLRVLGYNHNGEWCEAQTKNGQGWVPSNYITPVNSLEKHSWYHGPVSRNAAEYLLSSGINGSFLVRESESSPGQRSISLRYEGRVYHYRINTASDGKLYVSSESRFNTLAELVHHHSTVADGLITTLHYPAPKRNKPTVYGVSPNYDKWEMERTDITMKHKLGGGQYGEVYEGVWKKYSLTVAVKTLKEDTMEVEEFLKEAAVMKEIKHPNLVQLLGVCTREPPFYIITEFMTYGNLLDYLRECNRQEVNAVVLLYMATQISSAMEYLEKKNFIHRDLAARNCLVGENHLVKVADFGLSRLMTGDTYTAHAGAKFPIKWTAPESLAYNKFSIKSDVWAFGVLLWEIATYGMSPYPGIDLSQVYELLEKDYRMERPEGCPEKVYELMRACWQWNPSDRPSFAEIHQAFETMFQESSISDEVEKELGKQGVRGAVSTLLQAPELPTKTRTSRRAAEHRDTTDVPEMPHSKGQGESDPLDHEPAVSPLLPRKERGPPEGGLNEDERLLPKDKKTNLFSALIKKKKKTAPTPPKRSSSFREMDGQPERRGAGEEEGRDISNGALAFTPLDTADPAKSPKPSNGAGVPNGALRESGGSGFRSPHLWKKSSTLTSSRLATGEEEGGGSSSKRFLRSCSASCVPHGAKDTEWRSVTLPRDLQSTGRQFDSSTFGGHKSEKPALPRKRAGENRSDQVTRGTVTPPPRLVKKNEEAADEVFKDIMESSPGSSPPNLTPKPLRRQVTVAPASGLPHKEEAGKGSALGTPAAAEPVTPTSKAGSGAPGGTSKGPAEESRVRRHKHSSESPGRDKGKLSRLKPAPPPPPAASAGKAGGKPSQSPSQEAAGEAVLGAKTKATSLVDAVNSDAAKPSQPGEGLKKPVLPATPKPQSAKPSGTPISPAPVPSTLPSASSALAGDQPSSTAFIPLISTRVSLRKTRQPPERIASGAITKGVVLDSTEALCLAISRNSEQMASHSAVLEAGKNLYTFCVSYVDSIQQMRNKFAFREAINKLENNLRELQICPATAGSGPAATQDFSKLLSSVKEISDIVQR

[32] = tested on: CWR22R; assay: Cytotoxicity against human 22Rv1 cells after 4 days by propidium iodide staining-based fluorometric analysis; assay type: functional, cell-based; settings: 22Rv1, 96 h
[33] = target: T1, Epidermal growth factor receptor; assay: Inhibition of EGFR using poly(Glu,Tyr)4:1 as substrate and [gamma33P]ATP at 1 uM after 60 mins by scintillation counting
[34] = Cytotoxicity against human LXFA 526L cells after 4 days by propidium iodide staining-based fluorometric analysis; assay type: functional, cell-based; settings: 96 h
[35] = target: Vascular endothelial growth factor receptor 2 (Homo sapiens) (UniProt P35968); assay: Inhibition of VEGFR2 using poly(Glu,Tyr)4:1 as substrate and [gamma33P]ATP at 1 uM after 60 mins by scintillation counting
Sequence of Vascular endothelial growth factor receptor 2 (Homo sapiens) (P35968 whole entry): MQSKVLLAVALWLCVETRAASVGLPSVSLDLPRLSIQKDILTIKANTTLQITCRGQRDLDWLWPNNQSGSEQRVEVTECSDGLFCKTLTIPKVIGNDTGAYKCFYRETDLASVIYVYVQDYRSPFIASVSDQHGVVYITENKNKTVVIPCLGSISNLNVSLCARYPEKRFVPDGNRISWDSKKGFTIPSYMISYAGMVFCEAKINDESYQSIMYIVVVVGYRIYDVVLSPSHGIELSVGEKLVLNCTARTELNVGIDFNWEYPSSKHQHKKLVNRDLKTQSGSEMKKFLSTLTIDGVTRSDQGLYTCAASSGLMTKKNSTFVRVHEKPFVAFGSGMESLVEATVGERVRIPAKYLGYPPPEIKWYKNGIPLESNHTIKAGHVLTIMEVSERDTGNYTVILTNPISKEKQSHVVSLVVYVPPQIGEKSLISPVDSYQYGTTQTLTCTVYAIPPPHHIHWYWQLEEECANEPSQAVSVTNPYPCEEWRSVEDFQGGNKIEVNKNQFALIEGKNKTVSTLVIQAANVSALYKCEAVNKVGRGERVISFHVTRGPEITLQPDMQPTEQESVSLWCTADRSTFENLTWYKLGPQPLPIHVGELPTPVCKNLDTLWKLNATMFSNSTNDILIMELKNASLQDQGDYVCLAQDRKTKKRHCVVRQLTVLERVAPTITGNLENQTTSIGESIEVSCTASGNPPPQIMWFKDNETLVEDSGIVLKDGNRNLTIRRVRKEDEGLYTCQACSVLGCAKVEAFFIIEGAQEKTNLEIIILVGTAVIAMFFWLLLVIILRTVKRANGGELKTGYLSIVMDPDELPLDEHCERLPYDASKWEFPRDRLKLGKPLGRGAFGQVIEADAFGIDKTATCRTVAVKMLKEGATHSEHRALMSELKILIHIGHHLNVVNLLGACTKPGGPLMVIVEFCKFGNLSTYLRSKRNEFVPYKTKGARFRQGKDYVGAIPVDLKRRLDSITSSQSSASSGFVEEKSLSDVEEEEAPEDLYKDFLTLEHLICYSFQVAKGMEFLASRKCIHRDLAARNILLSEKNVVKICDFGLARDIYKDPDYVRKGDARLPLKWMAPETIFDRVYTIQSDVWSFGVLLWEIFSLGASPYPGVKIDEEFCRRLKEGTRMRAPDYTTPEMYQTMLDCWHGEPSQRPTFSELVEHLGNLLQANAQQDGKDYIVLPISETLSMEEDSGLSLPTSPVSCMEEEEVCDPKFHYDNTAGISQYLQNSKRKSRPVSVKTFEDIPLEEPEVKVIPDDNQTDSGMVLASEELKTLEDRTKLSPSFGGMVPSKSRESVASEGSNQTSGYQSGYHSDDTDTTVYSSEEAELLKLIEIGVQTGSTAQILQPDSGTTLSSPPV

[36] = tested on: HT-29; assay: Cytotoxicity against human HT-29 cells after 4 days by propidium iodide staining-based fluorometric analysis; assay type: functional, cell-based; settings: HT-29, 96 h
[37] = tested on: MCF7; assay: Cytotoxicity against human MCF7 cells after 4 days by propidium iodide staining-based fluorometric analysis; assay type: functional, cell-based; settings: MCF7, 96 h
[38] = Cytotoxicity against human CXF 269L cells after 4 days by propidium iodide staining-based fluorometric analysis; assay type: functional, cell-based; settings: 96 h
[39] = tested on: LNCaP; assay: Cytotoxicity against human LNCAP cells after 4 days by propidium iodide staining-based fluorometric analysis; assay type: functional, cell-based; settings: 96 h
[40] = tested on: PANC-1; assay: Cytotoxicity against human PANC1 cells after 4 days by propidium iodide staining-based fluorometric analysis; assay type: functional, cell-based; settings: PANC-1, 96 h
[41] = Cytotoxicity against human LXFL 529L cells after 4 days by propidium iodide staining-based fluorometric analysis; assay type: functional, cell-based; settings: 96 h
[42] = Cytotoxicity against human PXF 1752L cells after 4 days by propidium iodide staining-based fluorometric analysis; assay type: functional, cell-based; settings: 96 h
[43] = tested on: HCT-116; assay: Cytotoxicity against human HCT116 cells after 4 days by propidium iodide staining-based fluorometric analysis; assay type: functional, cell-based; settings: HCT-116, 96 h
[44] = Cytotoxicity against human DIFI cells after 4 days by propidium iodide staining-based fluorometric analysis; assay type: functional, cell-based; settings: 96 h
[45] = Cytotoxicity against human MEXF 1341L cells after 4 days by propidium iodide staining-based fluorometric analysis; assay type: functional, cell-based; settings: 96 h
[46] = Cytotoxicity against human RXF 486L cells after 4 days by propidium iodide staining-based fluorometric analysis; assay type: functional, cell-based; settings: 96 h
[47] = tested on: SAOS-2; assay: Cytotoxicity against human Saos2 cells after 4 days by propidium iodide staining-based fluorometric analysis; assay type: functional, cell-based; settings: SAOS-2, 96 h, read-out: IC50
[48] = target: Receptor tyrosine-protein kinase erbB-2 (Homo sapiens) (UniProt P04626); assay: Inhibition of Erbb2 using poly(Glu,Tyr)4:1 as substrate and [gamma33P]ATP at 1 uM after 60 mins by scintillation counting
[49] = target: T1, Epidermal growth factor receptor; assay: Inhibition of EGFR autophosphorylation in EGF-stimulated human A431 cells after 1 hr by immunoblotting; assay type: cell-based, A-431

## O=C(c1cc2ccccc2[nH]1)c1cc2c(Nc3cccc(Cl)c3)ncnc2s1
[1]
  IC50: 18.1 µM
[2]
  IC50: 20 µM
[3]
  IC50: 7.3 µM
[4]
  IC50: 21.5 µM
[5]
  IC50: 14.1 µM
[6]
  IC50: 15.9 µM
[7]
  IC50: 20.2 µM
[8]
  IC50: 26.4 µM
[9]
  IC50: 24.8 µM
[10]
  IC50: 4.7 µM
[11]
  IC50: 25.1 µM
[12]
  IC50: 3 µM
[13]
  IC50: 15.3 µM
[14]
  IC50: 0.0166 µM
[15]
  IC50: 8.6 µM
[16]
  inhibition: inactive
[17]
  IC50: 9.2 µM
[18]
  IC50: 16 µM
[19]
  IC50: 24 µM
[20]
  IC50: 6 µM
[21]
  IC50: 27.1 µM
[22]
  IC50: 23.7 µM
[23]
  IC50: 13.9 µM
[24]
  IC50: 4.3 µM
[25]
  IC50: 17.7 µM
[26]
  IC50: 49.7 µM
[27]
  IC50: 31 µM
[28]
  IC50: 47.6 µM
[29]
  IC50: 23.4 µM
[30]
  IC50: 18.1 µM
[31]
  inhibition: inactive
[32]
  IC50: 14 µM
[33]
  inhibition: 99%
[34]
  IC50: 13.6 µM
[35]
  inhibition: 20%
[36]
  IC50: 17.7 µM
[37]
  IC50: 12.5 µM
[38]
  IC50: 28.9 µM
[39]
  IC50: 11.3 µM
[40]
  IC50: 14.8 µM
[41]
  IC50: 7.6 µM
[42]
  IC50: 30.7 µM
[43]
  IC50: 18.9 µM
[44]
  IC50: 1.8 µM
[45]
  IC50: 20.1 µM
[46]
  IC50: 13.1 µM
[47]
  IC50: 19.3 µM
[48]
  inhibition: 73%
[49]
  IC50: 0.3 µM
